Measured values as given in the supplement of paper PMC4932681.
Structures can show the parent of a compound that is named as a salt.

Key:
T-47D [1] = test: relative IC50 (midpoint of fitted logistic curve, plateau may be below 50% inhibition; CellTiter-Glo viability); higher = less potent; details: 72 h
Protocol: (§1)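 FIMM FO2B library drugs were plated at 5 concentrations spanning a 10,000-fold range in 384-well plates. Cells were incubated for 72 h at 37 °C and viability was read by CellTiter-Glo, normalised to DMSO (0% inhibition) and 100 µM benzethonium chloride (100% inhibition). IC50 values come from logistic dose-response fits (Breeze pipeline). Tamoxifen-resistant lines and the 'in 1µM tamoxifen' parental arms were tested in medium with 1 µM 4-OH-tamoxifen.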

BT-474 [2] = test: as above; details: 72 h
Protocol: as §1

ZR-75-1 Tam1 [3] = test: as above; details: 4-OH-tamoxifen in medium 1 µM; 72 h
Protocol: as §1

BT-474 Tam2 [4] = test: as above; details: 4-OH-tamoxifen in medium 1 µM; 72 h
Protocol: as §1

BT-474 Tam1 [5] = test: as above; details: 4-OH-tamoxifen in medium 1 µM; 72 h
Protocol: as §1

ZR-75-1 Tam2 [6] = test: as above; details: 4-OH-tamoxifen in medium 1 µM; 72 h
Protocol: as §1

ZR-75-1 [7] = test: as above; details: 72 h
Protocol: as §1

T-47D [8] = test: drug sensitivity score (DSS) (DSS (dimensionless)); higher = more sensitive; extreme values may be limits of the assay; details: 72 h
Protocol: (§2)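 FIMM FO2B library drugs were tested at 5 concentrations (10,000-fold range) for 72 h, with CellTiter-Glo viability normalised to DMSO and benzethonium chloride controls. The Drug Sensitivity Score (DSS) is computed from the fitted logistic dose-response curve (area-based; 0 = inactive). Resistant lines and the 'in 1µM tamoxifen' arms were tested in 1 µM 4-OH-tamoxifen.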

BT-474 [9] = test: as above; details: 72 h
Protocol: as §2

T-47D Tam1 [10] = test: as above; details: 4-OH-tamoxifen in medium 1 µM; 72 h
Protocol: as §2

ZR-75-1 Tam1 [11] = test: as above; details: 4-OH-tamoxifen in medium 1 µM; 72 h
Protocol: as §2

BT-474 Tam2 [12] = test: as above; details: 4-OH-tamoxifen in medium 1 µM; 72 h
Protocol: as §2

T-47D Tam2 = test: as above; details: 4-OH-tamoxifen in medium 1 µM; 72 h
Protocol: as §2

MCF-7 Tam1 = test: as above; details: 4-OH-tamoxifen in medium 1 µM; 72 h
Protocol: as §2

BT-474 Tam1 [13] = test: as above; details: 4-OH-tamoxifen in medium 1 µM; 72 h
Protocol: as §2

MCF-7 [14] = test: as above; details: 72 h
Protocol: as §2

ZR-75-1 Tam2 [15] = test: as above; details: 4-OH-tamoxifen in medium 1 µM; 72 h
Protocol: as §2

ZR-75-1 [16] = test: as above; details: 72 h
Protocol: as §2

T-47D Tam1 [17] = test: relative IC50 (midpoint of fitted logistic curve, plateau may be below 50% inhibition; CellTiter-Glo viability); higher = less potent; details: 4-OH-tamoxifen in medium 1 µM; 72 h
Protocol: as §1

MCF-7 [18] = test: as above; details: 72 h
Protocol: as §1

Compound	relative IC50 (T-47D [1]; 4-OH-tamoxifen in medium 0 µM) [nM]	relative IC50 (T-47D [1]; 4-OH-tamoxifen in medium 1 µM) [nM]	relative IC50 (BT-474 [2]; 4-OH-tamoxifen in medium 0 µM) [nM]	relative IC50 (BT-474 [2]; 4-OH-tamoxifen in medium 1 µM) [nM]	relative IC50 (ZR-75-1 Tam1 [3]) [nM]	relative IC50 (BT-474 Tam2 [4]) [nM]	relative IC50 (BT-474 Tam1 [5]) [nM]	relative IC50 (ZR-75-1 Tam2 [6]) [nM]	relative IC50 (ZR-75-1 [7]; 4-OH-tamoxifen in medium 0 µM) [nM]	relative IC50 (ZR-75-1 [7]; 4-OH-tamoxifen in medium 1 µM) [nM]	drug sensitivity score (T-47D [8]; 4-OH-tamoxifen in medium 0 µM)	drug sensitivity score (T-47D [8]; 4-OH-tamoxifen in medium 1 µM)	drug sensitivity score (BT-474 [9]; 4-OH-tamoxifen in medium 0 µM)	drug sensitivity score (BT-474 [9]; 4-OH-tamoxifen in medium 1 µM)	drug sensitivity score (T-47D Tam1 [10])	drug sensitivity score (ZR-75-1 Tam1 [11])	drug sensitivity score (BT-474 Tam2 [12])	drug sensitivity score (T-47D Tam2)	drug sensitivity score (MCF-7 Tam1)	drug sensitivity score (BT-474 Tam1 [13])	drug sensitivity score (MCF-7 [14]; 4-OH-tamoxifen in medium 0 µM)	drug sensitivity score (MCF-7 [14]; 4-OH-tamoxifen in medium 1 µM)	drug sensitivity score (ZR-75-1 Tam2 [15])	drug sensitivity score (ZR-75-1 [16]; 4-OH-tamoxifen in medium 0 µM)	drug sensitivity score (ZR-75-1 [16]; 4-OH-tamoxifen in medium 1 µM)	relative IC50 (T-47D Tam1 [17]) [nM]	relative IC50 (MCF-7 [18]; 4-OH-tamoxifen in medium 0 µM) [nM]	relative IC50 (MCF-7 [18]; 4-OH-tamoxifen in medium 1 µM) [nM]
CC[C@H](CO)Nc1nc(NCc2ccccc2)c2ncn(C(C)C)c2n1 [Seliciclib (Roscovitine)]	> 10000	> 10000	> 10000	> 10000	> 10000	> 10000	> 10000	> 10000	> 10000	> 10000	0	0	0	0	4	0	0	0.682	0.0488	0	0.816	0.217	0	0	0			
Cn1cnc2c(F)c(Nc3ccc(Br)cc3F)c(C(=O)NOCCO)cc21 [MEK-162 (ARRY-162)]	> 1000	> 1000	> 1000		> 1000	> 1000	> 1000	> 1000	> 1000	> 1000	0	0	0	1.07	3.1	0	0	0.511	0	0	0.0194	1.02	0	0	0			
COc1cc(OC2CCN(C)CC2)ccc1Nc1ncc2c(n1)n(C1CCCC1)c(=O)n2C [AZ 3146]			> 10000	1590			3660				1.1	0.111	0	7.15	0	0.233	0.781	0.886	0.007	3.57	0.951	0.135	0.671	0.724	0.0431	> 10000		
CNC(=O)c1cc(Oc2ccc(NC(=O)Nc3ccc(Cl)c(C(F)(F)F)c3)c(F)c2)ccn1 [Regorafenib (BAY 73-4506)]			3830	3940		2430	3610	1940			1.1	0.365	1.48	3.22	9.09	0.695	5.3	0.22	0	4.57	2.49	1.46	2.33	0.232	0.299	370	3540	3340
CO[C@H]1C[C@@H]2CC[C@@H](C)[C@@](O)(O2)C(=O)C(=O)N2CCCC[C@H]2C(=O)O[C@H]([C@H](C)C[C@@H]2CC[C@@H](OCCO)[C@H](OC)C2)CC(=O)[C@H](C)/C=C(\C)[C@@H](O)[C@@H](OC)C(=O)[C@H](C)C[C@H](C)/C=C/C=C/C=C/1C [Everolimus]					3.52			1.23	1.27	3.47	5.82	2.41	7.06	0.135	4.62	4.45	2.18	3.34	0.336	1.16	11.6	8.24	9.02	8.05	4.22		1.04	0.952
O=C(c1ccc(OCCN2CCCCC2)cc1)c1c(-c2ccc(O)cc2)sc2cc(O)ccc12 [Raloxifene  HCl]		> 10000		3740	> 10000	4220	4000	> 10000			0.0005	0	0.75	2.42	0.0352	0	1.14	1.8	0.681	1.74	3.69	1.88	0	0.0043	0.0503		553	2650
COc1ccc(C2=N[C@@H](c3ccc(Cl)cc3)[C@@H](c3ccc(Cl)cc3)N2C(=O)N2CCNC(=O)C2)c(OC(C)C)c1 [Nutlin-3]	> 10000	> 10000	> 10000		1900		3210	1350	2790		0	0	0	0.0005	0.605	2.29	2.34	0.429	0.214	1.52	2.64	3.36	4.17	1.96	2.65			2080
CO[C@@H]1[C@H](N(C)C(=O)c2ccccc2)C[C@H]2O[C@]1(C)n1c3ccccc3c3c4c(c5c6ccccc6n2c5c31)C(=O)NC4 [Midostaurin (PKC412)]		1810		305	> 10000			> 10000	> 10000	> 10000	1.37	3.14	3.45	7.09	3.03	0	1.88	1.85	1.28	0.189	0.329	0.519	0	0	0	1490		
COc1cc2nccc(Oc3ccc(NC(=O)Nc4cc(C)on4)c(Cl)c3)c2cc1OC [Tivozanib  (AV-951)]			3570	3670	> 10000	3910	3120			> 10000	0.499	0.378	1.25	3.61	0.968	0	1.74	0.444	0.0468	4.02	0.0979	0.0672	0	0.0461	0			
Cc1c(C(=O)Nc2ccc(N3C[C@@H](C)O[C@@H](C)C3)nc2)cccc1-c1ccc(OC(F)(F)F)cc1 [Erismodegib (NVP-LDE225)]		> 10000		3610				> 10000	> 10000		0.587	0	0.627	1.78	0	0.271	1.6	1.05	0.695	0.226	0.927	0.267	0	0	0.747	> 10000		
c1ccc2c(CCNc3ccc(Nc4ccncc4)cc3)c[nH]c2c1		> 10000	> 10000	3980		3900	3220	2760			0.192	0	0	3.42	0.685	0.823	1.44	0.542	0.0212	5.04	2.88	0.416	1.69	0.0538	0.973		3720	
CO[C@H]1C[C@@H]2CC[C@@H](C)[C@@](O)(O2)C(=O)C(=O)N2CCCC[C@H]2C(=O)O[C@H]([C@H](C)C[C@@H]2CC[C@@H](OC(=O)C(C)(CO)CO)[C@H](OC)C2)CC(=O)[C@H](C)/C=C(\C)[C@@H](O)[C@@H](OC)C(=O)[C@H](C)C[C@H](C)/C=C/C=C/C=C/1C [Temsirolimus]				> 100	2.67			1.08	0.917		3.79	0.468	0.668	0	5.45	4.48	0.262	2.09	0.189	1.35	10.3	6.12	8.51	8.12	4.72	2.04	0.493	2
Nc1ccccc1NC(=O)c1ccc(CNC(=O)OCc2cccnc2)cc1 [Entinostat]	3890	3990	3440	3390		2810	3730		3960		2.94	1.33	3.08	4.39	5.11	1.06	3.18	0.0349	0	3.73	3.59	1.94	0.992	1.19	0	1820	2990	3280
CC(=O)Nc1cccc(-n2c(=O)n(C3CC3)c(=O)c3c(Nc4ccc(I)cc4F)n(C)c(=O)c(C)c32)c1	> 250	> 250	> 250		> 250	> 250	> 250	> 250	> 250	> 250	0	0.259	0	0.246	2.19	0	0	2.69	0.101	0	0	3.01	0	0	0		> 250	
CC(C)c1c(C(=O)Nc2ccccc2)c(-c2ccccc2)c(-c2ccc(F)cc2)n1CC[C@@H](O)C[C@@H](O)CC(=O)O [Atorvastatin]	1820	3210		> 10000	1720			1430	1170	1650	2.75	1.73	0.471	0	3.38	3.76	2.17	0.823	0	0.517	0.619	1.69	3.56	4.64	2.87			
S=c1[nH]cnc2nc[nH]c12 [Mercaptopurine]	> 10000	> 10000	> 10000		1270	> 10000	> 10000		1170		0	0	0	1.43	0.0158	3.2	0	0	0.313	0	0.509	2.88	1.17	3.86	0			
